Data as given in patent US20120282331A1, “MAMMALIAN METABOLITES OF STEROIDS” (TOKAI PHARMACEUTICALS, INC., priority 2009, published 2012).

Key:
[1] = Metabolic stability in pooled dog liver microsomes; type: in vitro ADME
Method: (§1) The depletion of the parent compound and the formation of metabolites in a time-dependent manner were explored in the presence or absence of an NADPH-generating system.
(§2) 3β-Hydroxy-17(1H-benzimidazol-1-yl)androsta-5,16-diene is incubated with pooled rat, dog, monkey and human liver microsomes at a protein concentration of 0.6 mg/mL. Incubation mixture contains either 0.1 M potassium phosphate buffer pH 7.4 or the incubation buffer. Following two minutes of pre-incubation of the incubation mixture at ˜37° C., the reaction is started by the addition of an NADPH-generating system (NADPH-GS) (1 mM NADP+, 5 mM glucose-6-phosphate, 1.0 unit/mL glucose-6-phosphate dehydrogenase) or 0.1 M phosphate buffer. At the appropriate time points (0, 15, 30, 60 and 120 minutes), reactions are stopped by the addition of appropriate stop solutions (0.1% formic acid in acetonitrile). The samples are centrifuged at approximately 10 000×g for 10 minutes at 20° C. An amount of supernatant from each sample is transferred to pre-labeled HPLC vials for analysis. Samples are analyzed by LC/MS to monitor the remaining parent compound or formation of potential metabolites. On each occasion, blank sample containing TOK-001 but without microsomes, is included.

[2] = Metabolic stability in pooled rat liver microsomes; type: in vitro ADME
Method: as §1, §2

[3] = Metabolic stability in pooled monkey liver microsomes; type: in vitro ADME; conditions: EDTA and MgCl2; for depletion (negative = increase in concentration): absence of NADPH-GS
Method: as §1, §2

[4] = Metabolic stability in pooled human liver microsomes; type: in vitro ADME
Method: as §1, §2

[5] = Solubility in incubation medium; type: physicochemical; conditions: presence versus absence of MgCl2/EDTA
Description: However, the role of the divalent cation, MgCl2 in the activation of the CYP 450 activity is not well defined (Saito et al., 2006, Tamura et al., 1988).

[6] = 10 μM, EDTA and MgCl2, up to 60 minutes
[7] = 10 μM, EDTA and MgCl2, without NADPH-GS, 120 minutes
[8] = EDTA and MgCl2, up to 120 minutes

**Q.** Which “depletion compared to the 0 minute incubation” value ([1]; 10 μM, 0.1 M phosphate buffer only, with NADPH-generating system, 120 minutes) does the source give for C[C@]12CC[C@H](O)CC1=CC[C@@H]1[C@@H]2CC[C@]2(C)C(n3cnc4ccccc43)=CC[C@@H]12 [Compound (1), 3β-Hydroxy-17(1H-benzimidazol-1-yl)androsta-5,16-diene] here?
**A.** ~25%

**Q.** And the “metabolic stability” value ([1]; 10 μM, 0.1 M phosphate buffer only, with NADPH-generating system, up to 60 minutes)?
**A.** metabolically stable

**Q.** And the “metabolic stability” value [1, 6]?
**A.** metabolically stable

**Q.** And the “decrease of parent compound in negative control” value [1, 7]?
**A.** ~21%

**Q.** And the “metabolic stability” value [1, 8]?
**A.** metabolically stable

**Q.** And the recovery at 60 min, 10 μM ([1]; both sexes, dog, pooled dog liver microsomes, 10 μM, phosphate buffer, 1 mM EDTA, 3 mM MgCl2, with NADPH-generating system, 60 minutes, read-out: recovery compared to the 0 minute)?
**A.** ~85%

**Q.** And the “metabolic stability” value [2, 6]?
**A.** metabolically stable

**Q.** And the “depletion of parent compound” value ([2]; 10 μM, EDTA and MgCl2, with NADPH-GS, 120 minutes)?
**A.** ~21%

**Q.** What about the “change of parent compound in negative control” value [2, 7] of the same compound?
**A.** slight increase

**Q.** What about the “metabolic stability” value [2, 8] of the same compound?
**A.** metabolically stable

**Q.** And the recovery at 120 min, 10 μM ([2]; both sexes, rat, pooled rat liver microsomes, pH 7.4, 10 μM, 0.1 M phosphate buffer only, with NADPH-generating system, 120 minutes, read-out: recovery compared to the 0 minute incubation)?
**A.** ~86%

**Q.** And the recovery at 60 min, 10 μM ([2]; both sexes, rat, pooled rat liver microsomes, 10 μM, phosphate buffer, 1 mM EDTA, 3 mM MgCl2, with NADPH-generating system, 60 minutes, read-out: recovery compared to the 0 minute incubation)?
**A.** ~85%

**Q.** What about the recovery at 120 min, 10 μM ([2]; both sexes, rat, pooled rat liver microsomes, 10 μM, phosphate buffer, 1 mM EDTA, 3 mM MgCl2, with NADPH-generating system, 120 minutes, read-out: recovery compared to the 0 minute) of the same compound?
**A.** ~79%

**Q.** What about the “depletion (negative = increase in concentration)” value ([3]; 10 μM, 30 minutes) of the same compound?
**A.** ~−14%

**Q.** And the “depletion (negative = increase in concentration)” value ([3]; 10 μM, 120 minutes)?
**A.** ~−12%

**Q.** What about the “depletion of parent compound” value ([3]; 10 μM, with NADPH-GS, 30 minutes) of the same compound?
**A.** ~16%

**Q.** What about the “metabolic stability” value ([3]; up to 120 minutes) of the same compound?
**A.** less stable

**Q.** What about the “depletion of parent compound” value ([4]; 10 μM, EDTA and MgCl2, absence of NADPH-GS) of the same compound?
**A.** ~7%

**Q.** What about the “depletion of parent compound” value ([4]; 10 μM, EDTA and MgCl2, with NADPH-generating system, over 120 minutes) of the same compound?
**A.** ≤ 11%

**Q.** And the “metabolized (depletion)” value ([4]; 0.1 M phosphate buffer only, NADPH and time-dependent)?
**A.** ≥ 50%

**Q.** What about the “metabolic stability” value [4, 8] of the same compound?
**A.** metabolically stable

**Q.** And the recovery at 120 min, 10 μM ([4]; both sexes, human, pooled human liver microsomes, 10 μM, phosphate buffer, 1 mM EDTA, 3 mM MgCl2, with NADPH-generating system, over 120 minutes)?
**A.** ~89%

**Q.** And the “dissolution in incubation medium” value [5]?
**A.** slightly better in the absence of MgCl2/EDTA
